Assay results reported in PubChem BioAssay AID651650 (Sanford-Burnham Center for Chemical Genomics, 2012).
Calls of active or inactive are those of the source.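 Rule for the calls: active = mean IC50 below 20 µM in each of the two panels, so potent in both; inactive = the rest.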

Target: Neuropilin-1 (Homo sapiens) (UniProt O14786)
Experiment: blockers of CendR peptide binding to NRP-1 – biochemical, FP and AlphaScreen panel, dose response (AID 651650)
Conditions: NRP-1 b1b2 / RPARPAR peptide binding, FP or AlphaScreen
[1] = AlphaScreen, run 1, individual panel run IC50
[2] = FP, run 1, individual panel run IC50
[3] = FP, run 2, individual panel run IC50

Chain of Neuropilin-1 (Homo sapiens) (O14786 whole entry, looked up): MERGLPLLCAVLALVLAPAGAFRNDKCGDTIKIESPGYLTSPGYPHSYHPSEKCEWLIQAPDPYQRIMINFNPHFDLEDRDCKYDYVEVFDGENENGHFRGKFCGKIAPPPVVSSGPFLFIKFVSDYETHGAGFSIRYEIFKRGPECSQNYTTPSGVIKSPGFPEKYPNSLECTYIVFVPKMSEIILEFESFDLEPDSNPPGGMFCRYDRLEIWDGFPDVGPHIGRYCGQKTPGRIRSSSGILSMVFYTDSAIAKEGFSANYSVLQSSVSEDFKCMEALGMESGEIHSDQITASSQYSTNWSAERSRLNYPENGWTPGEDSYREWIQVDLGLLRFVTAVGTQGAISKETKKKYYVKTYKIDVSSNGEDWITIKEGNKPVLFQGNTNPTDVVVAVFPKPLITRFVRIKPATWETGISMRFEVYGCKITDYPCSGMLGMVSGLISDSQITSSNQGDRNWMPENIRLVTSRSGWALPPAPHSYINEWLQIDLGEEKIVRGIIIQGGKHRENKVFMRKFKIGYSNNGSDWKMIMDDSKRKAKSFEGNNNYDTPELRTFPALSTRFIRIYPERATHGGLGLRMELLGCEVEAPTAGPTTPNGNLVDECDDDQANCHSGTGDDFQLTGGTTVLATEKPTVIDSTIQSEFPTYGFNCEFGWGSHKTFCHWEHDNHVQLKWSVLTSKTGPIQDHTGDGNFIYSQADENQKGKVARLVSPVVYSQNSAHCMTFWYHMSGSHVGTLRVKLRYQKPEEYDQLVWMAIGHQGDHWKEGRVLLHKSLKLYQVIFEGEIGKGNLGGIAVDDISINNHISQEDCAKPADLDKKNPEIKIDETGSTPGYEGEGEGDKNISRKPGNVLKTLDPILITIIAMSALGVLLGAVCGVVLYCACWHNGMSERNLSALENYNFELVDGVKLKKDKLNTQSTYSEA

SMILES	IC50 (AlphaScreen, mean of runs)	IC50 [1] [µM]	IC50 (FP, mean of runs)	IC50 [2] [µM]	IC50 [3] [µM]
O=S(=O)(c1cc(Cl)cc(Cl)c1)N1Cc2cc(-c3ccccc3)ccc2-n2nncc2C1	> 100 µM (inactive)	> 100	> 95 µM (inactive)	> 95	> 95
CN(C)/C=C/c1c([N+](=O)[O-])c2ccc(O)cc2n1-c1ccccc1	> 100 µM (inactive)	> 100	> 95 µM (inactive)	> 95	> 95
O=C(NCCN1CCOCC1)c1cc(-c2ccc(F)cc2)on1	> 100 µM (inactive)	> 100	> 95 µM (inactive)	> 95	> 95
Cc1ccc(Nc2c(-c3ccccc3O)nc3ncccn23)cc1	> 100 µM (inactive)	> 100	> 95 µM (inactive)	> 95	> 95
O=[N+]([O-])c1ccc(-n2nnnc2CN2CCCCC2)cc1	> 100 µM (inactive)	> 100	> 95 µM (inactive)	> 95	> 95
CCc1ccc(NS(=O)(=O)c2c(C(=O)N3CCCCCC3)c(C)n(C)c2C)cc1	> 100 µM (inactive)	> 100	> 95 µM (inactive)	> 95	> 95
COc1ccccc1C(=O)NC(=O)CSc1nncn1C	> 100 µM (inactive)	> 100	> 95 µM (inactive)	> 95	> 95
O=C(Nc1ccc(N2CCOCC2)cc1)c1cc(-n2cnnc2)ccc1Cl	> 100 µM (inactive)	> 100	> 95 µM (inactive)	> 95	> 95
O=C(CSc1nc2ccccc2c(=O)n1-c1ccc(F)cc1F)Nc1ccc2c(c1)CCC2	> 100 µM (inactive)	> 100	> 95 µM (inactive)	> 95	> 95
NC(N)=NCCC[C@H](NC(=O)OCc1ccccc1)C(=O)O	> 100 µM (inactive)	> 100	> 95 µM (inactive)	> 95	> 95
Cc1ccc(Cl)c(NC(=O)CSc2cccc[n+]2[O-])c1Cl	> 100 µM (inactive)	> 100	> 95 µM (inactive)	> 95	> 95
CCOCCCNC(=O)C(c1ccc(C)cc1)N(Cc1cccs1)C(=O)c1ccccc1O (stereo not given)	> 100 µM (inactive)	> 100	> 95 µM (inactive)	> 95	> 95
CCOC(=O)C[C@H]1c2cc(C(F)(F)F)ccc2S(=O)(=O)N1Cc1ccccc1	> 100 µM (inactive)	> 100	> 95 µM (inactive)	> 95	> 95
COc1ccc(CCN=C2SCC(=O)N2Cc2ccccc2)cc1OC	> 100 µM (inactive)	> 100	> 95 µM (inactive)	> 95	> 95
Cc1ccc(N(C(=O)c2ccc(CN3CCOCC3)o2)C(C(=O)NCCC(C)C)c2cccs2)c(C)c1 (stereo not given)	> 100 µM (inactive)	> 100	> 95 µM (inactive)	> 95	> 95
Cc1onc(-c2ccccc2)c1C(=O)Nc1c(C)n(C)n(-c2ccccc2)c1=O	> 100 µM (inactive)	> 100	> 95 µM (inactive)	> 95	> 95
CCOc1cc(C(=O)NCCN2CCOCC2)cc(OCC)c1OCC	> 100 µM (inactive)	> 100	> 95 µM (inactive)	> 95	> 95
Cc1ccc(CN(CC(=O)NC2CCCCC2)C(=O)c2csnn2)cc1	> 100 µM (inactive)	> 100	> 95 µM (inactive)	> 95	> 95
CC1CCN(C(=O)CSc2nncn2C)CC1	> 100 µM (inactive)	> 100	> 95 µM (inactive)	> 95	> 95
COc1ccc(CCNC(=O)c2ccc(Cl)c(S(=O)(=O)N(C)c3ccccc3)c2)cc1	> 100 µM (inactive)	> 100	> 95 µM (inactive)	> 95	> 95
CN(Cc1cnn(C)c1)C(=O)c1cc2ccccc2oc1=O	> 100 µM (inactive)	> 100	> 95 µM (inactive)	> 95	> 95
C=CCC1(CC=C)CCCN1C(=O)c1cc(COc2cccc(OC)c2)on1	> 100 µM (inactive)	> 100	> 95 µM (inactive)	> 95	> 95

The next lines start with the values.

IC50 (AlphaScreen, mean of runs)	IC50 [1] [µM]	IC50 (FP, mean of runs)	IC50 [2] [µM]	IC50 [3] [µM]	SMILES
> 100 µM (inactive)	> 100	> 95 µM (inactive)	> 95	> 95	O=C1CCCN1CCCNC(=S)Nc1ccc(Cl)cc1Cl
> 100 µM (inactive)	> 100	> 95 µM (inactive)	> 95	> 95	CCCCc1ccc(S(=O)(=O)N2CCC3(CC2)OCCO3)cc1
> 100 µM (inactive)	> 100	> 95 µM (inactive)	> 95	> 95	NC(=S)NNC(=S)Nc1ccccc1
> 100 µM (inactive)	> 100	> 95 µM (inactive)	> 95	> 95	Nc1ccc(C#Cc2c(-c3ccsc3)oc3ccc(N4CCOCC4)cc23)cc1
inactive	27.8	inactive	> 95	38.7	CCOC(=O)CNc1ccc2c(c1)OCO2
> 100 µM (inactive)	> 100	> 95 µM (inactive)	> 95	> 95	O=C(NNc1ncnc2c1cnn2-c1ccc(F)cc1)c1ccco1
> 100 µM (inactive)	> 100	> 95 µM (inactive)	> 95	> 95	Oc1ccccc1-c1ccn[nH]1
> 100 µM (inactive)	> 100	> 95 µM (inactive)	> 95	> 95	O=C1CCC[C@@H]2Cc3nc4cc5c(cc4cc3[C@@H]3CCN1[C@H]23)OCO5
> 100 µM (inactive)	> 100	> 95 µM (inactive)	> 95	> 95	Cc1ccc(NC(=O)c2ccc3c(c2)OCCO3)cc1S(=O)(=O)Nc1cccc(Cl)c1
0.965 µM	0.965	> 95 µM (inactive)	> 95	> 95	O=C(c1ccco1)N1CCN(C(=O)c2ccccc2OC(=O)C23CC4CC(CC(C4)C2)C3)CC1
14.5 µM	14.5	> 95 µM (inactive)	> 95	> 95	CCOc1ccc(S(=O)(=O)N2CCN(C(=O)c3sccc3C)CC2)cc1
10.7 µM	10.7	> 95 µM (inactive)	> 95	> 95	NC(=O)C1CCCN(C(=O)c2ccc3nc(Cc4cccc(Cl)c4)oc3c2)C1 (stereo not given)
> 100 µM (inactive)	> 100	> 95 µM (inactive)	> 95	> 95	CCOC(=O)C1(O)CC(C)=NN1C(=O)c1cccc(Br)c1 (stereo not given)
> 100 µM (inactive)	> 100	> 95 µM (inactive)	> 95	> 95	C=CCn1c(SCC(=O)Nc2ncc(Cc3ccc(Br)cc3)s2)nnc1-c1ccncc1
> 100 µM (inactive)	> 100	> 95 µM (inactive)	> 95	> 95	Cc1ccc(NC(=S)Nc2cccc3ccccc23)cc1
> 100 µM (inactive)	> 100	> 95 µM (inactive)	> 95	> 95	CCN(CC)C(=O)C1CCCN(C(=O)Nc2ccc3nsnc3c2)C1 (stereo not given)
> 100 µM (inactive)	> 100	> 95 µM (inactive)	> 95	> 95	CCOC(=O)c1c(=O)n(O)c2ccc(OC)cc2[n+]1[O-]
> 100 µM (inactive)	> 100	> 95 µM (inactive)	> 95	> 95	CCCc1c(C)nc(N2CCN(c3ccccc3OC)CC2)[nH]c1=O
12.3 µM	12.3	> 95 µM (inactive)	> 95	> 95	Cc1ccccc1Oc1ccc2c(c1)[C@@H]1C[C@H](N(C)C(=O)Nc3cc(Cl)cc(Cl)c3)[C@H]([C@H](C)O)C(=O)N1CC2
> 100 µM (inactive)	> 100	> 95 µM (inactive)	> 95	> 95	Cc1ccccc1NC(=O)c1cccc(NC(=O)CCC(=O)O)c1
inactive	25.1	> 95 µM (inactive)	> 95	> 95	CCOC(=O)Cc1cnc(NC(=O)NC(C(=O)OCC)(c2ccccc2)C(F)(F)F)s1 (stereo not given)
inactive	95.3	> 95 µM (inactive)	> 95	> 95	CCn1c(SCC(=O)c2ccccc2)nnc1-c1cccs1
inactive	92	> 95 µM (inactive)	> 95	> 95	Cc1ccc(C(=O)N/C(=C\c2sccc2C)C(=O)NCc2ccco2)cc1
